Legend:
CYP3A4(BQ) = CYP3A4(BQ) (Homo sapiens, UniProt P08684); test: CYP3A4(BQ) inhibition; format: in vitro ADME; conditions: CYP3A4, substrate BQ; read-out: Cyp IC50 3A4(BQ)
In short: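 Inhibition of human CYP3A4 (BQ substrate) was measured by fluorescence, since blocking metabolism of a known substrate lowers the fluorescent product signal. Compounds dissolved in DMSO at 100 mM were diluted into acetonitrile and then into NADPH regeneration cofactor mix, serially diluted 1:1 across 10 points, and preincubated in 384 well plates for 10 minutes at 37° C.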

MV-4-11 cells = test: MV-4-11 (leukemia) cell proliferation assay (ATPlite); format: cell-based; conditions: Homo sapiens, MV4-11, read-out: Inhibition of Cell Proliferation IC50, MV-4-11
Procedure: Compounds are assessed in a variety of cell based assays. For example BaF3 cells engineered with any of BCR-FMS, BCR-KIT, BCR-FLT3, BCR-NTRK1, BCR-NTRK2, and BCR-NTRK3, are used in cell proliferation assays to assess inhibitory activity of Fms, Kit, Flt-3, TrkA, TrkB, and TrkC, respectively. An MV-4-11 (leukemia) cell proliferation assay is used to assess inhibitory activity in Flt-3, and SKNSH (human neuroblastoma) cell proliferation assay is used to assess efficacy of Fms/Trk inhibitors. Additional cells may be assayed similarly to assess the efficacy of Fms/Trk inhibitors, such as MiaPaCa (human pancreatic cancer) and Capan-1 (human pancreatic carcinoma) cells. Reagent and assay conditions are as follows: • BaF3 cells: • Maintained in RPMI containing 10% FBS, 1% PenStrep, 1% NEAA, and 1% L-Glutamine, supplemented with 1 mg/mL G418 and 5% WEHI-CM (or recombinant murine IL-3). • Confluent cells are split 1:50 to 1:100 every 3-4 days. • MV-4-11 cells: • Maintained in Iscove's Modified Dulbecco's Medium containing 10% FBS. • Confluent cells are split 1:4 every 3-4 days. • SKNSH cells: RPMI containing 10% FBS. On day 1, cells are counted, then centrifuged in a conical tube for 5 minutes at 1000 rpm. The supernatant is removed and cells are re-suspended as follows: • BaF3: resuspend in growth media +1 mg/mL G418 (without WEHFIL-3) to 2×10^5 cells/mL. • MV-4-11: resuspend in growth media to 5×10^5 cells/mL. • SKNSH: resuspend in growth media to 2×10^4 cells/mL. The cells are plated (50 μL, 150 μL for SKNSH cells) in each well of a 96-well dish (Corning 3610) and incubated at 37° C. in 5% CO2 overnight, cells plated to a final concentration of cells as follows: • BaF3: 10,000 cells per well. • MV-4-11: 25,000 cells per well. • SKNSH: 3,000 cells per well. On day 2, compound at a maximum concentration of 5 mM is serially diluted 1:3 for a total of 8 point titration with DMSO as a control. A 1 μL aliquot of each dilution point is added to 249 μL growth media and 50 μL is added to a well containing cells, providing 10 μM compound for the maximum concentration point. The cells are incubated for 3 days at 37° C. in 5% CO2. For SKNSH cells, a 0.75 μL aliquot of appropriate dilution in DMSO is added to 150 μL of cells. On day 5, ATPlite 1 step Luminescence Assay System (Perkin Elmer #6016739) is brought to room temperature along with the cell cultures. ATPlite is added to each well as follows: • BaF3: 25 μL per well. • MV-4-11: 40 μL per well. • SKNSH: 20 μL per well. The cells are incubated at room temperature for 10 minutes, then luminescence is read on Safire reader. The measured luminescence correlates directly with cell number, such that the reading as a function of compound concentration is used to determine the IC50 value.
It is understood that the results of these assays may vary as assay conditions are varied. Inhibition levels determined under the conditions described herein represent a relative activity for the compounds tested under the specific conditions employed. The cell based assays are likely to show variability due to the complexity of the system and the sensitivity thereof to any changes in the assay conditions. […] Results for compounds that are tested and show substantially no inhibition below the highest tested concentration are represented as “-” in the tables below. In some instances, the compounds were not tested in all of the assays, or assay results were not valid, as indicated by NA in the tables below.

Chain of CYP3A4(BQ) (P08684 whole entry): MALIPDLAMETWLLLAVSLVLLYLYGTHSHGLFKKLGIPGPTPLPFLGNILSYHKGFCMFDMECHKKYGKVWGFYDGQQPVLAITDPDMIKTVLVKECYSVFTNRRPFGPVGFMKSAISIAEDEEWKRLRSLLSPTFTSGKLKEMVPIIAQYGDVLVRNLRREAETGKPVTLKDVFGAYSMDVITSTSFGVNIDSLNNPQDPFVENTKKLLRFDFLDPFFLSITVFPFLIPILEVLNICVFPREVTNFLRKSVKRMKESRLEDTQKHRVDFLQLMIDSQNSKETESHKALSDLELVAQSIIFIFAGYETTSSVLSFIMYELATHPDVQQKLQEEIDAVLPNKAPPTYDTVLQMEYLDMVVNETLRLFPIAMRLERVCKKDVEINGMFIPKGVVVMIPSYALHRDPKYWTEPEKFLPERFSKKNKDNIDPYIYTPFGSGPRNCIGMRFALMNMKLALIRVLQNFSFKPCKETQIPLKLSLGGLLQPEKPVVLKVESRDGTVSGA

SMILES	IC50 (CYP3A4(BQ)) [µM]	IC50 (MV-4-11 cells) [µM]
CCc1ccc(Nc2ccc(Cc3c[nH]c4ncnc(OCCOC)c34)c(F)n2)cn1 [Compound P-4016, (6-Ethyl-pyridin-3-yl)-{6-fluoro-5-[4-(2-methoxy-ethoxy)-7H-pyrrolo[2,3-d]pyrimidin-5-ylmethyl]-pyridin-2-yl}-amine]	> 10	< 0.1
CCOc1ncnc2[nH]cc(Cc3ccc(Nc4ccc(C)nc4)nc3F)c12 [Compound P-4017, [5-(4-Ethoxy-7H-pyrrolo[2,3-d]pyrimidin-5-ylmethyl)-6-fluoro-pyridin-2-yl]-(6-methyl-pyridin-3-yl)-amine]	> 10	< 1
CCOc1ncnc2[nH]cc(Cc3ccc(Nc4ccc(OC)nc4)nc3F)c12 [Compound P-4018, [5-(4-Ethoxy-7H-pyrrolo[2,3-d]pyrimidin-5-ylmethyl)-6-fluoro-pyridin-2-yl]-(6-methoxy-pyridin-3-yl)-amine]	> 10	< 1
COCCOc1ncnc2[nH]cc(Cc3ccc(Nc4ccc(OC)nc4)nc3F)c12 [Compound P-4019, {6-Fluoro-5-[4-(2-methoxy-ethoxy)-7H-pyrrolo[2,3-d]pyrimidin-5-ylmethyl]-pyridin-2-yl}-(6-methoxy-pyridin-3-yl)-amine]	> 10	< 1

From patent US8901118B2, “Compounds and methods for kinase modulation, and indications therefor” (Plexxikon Inc., priority 2010, dated 2014)
